Where a SMILES comes first, the peptide text is derived from it. Bridges are numbered along the chain shown (N, C = ends). [ ]: non-standard residue; d: D form. The star is where a group is joined. hPhe(3-Cl-4-CF3) = N[C@@H](CCc1ccc(C(F)(F)F)c(Cl)c1)C(=O)O; NPrPhe(4-CF3) = CCCN[C@@H](Cc1ccc(C(F)(F)F)cc1)C(=O)O; Piperazinyl(4-(3-oxetanyl)) = C1OCC1N1CCN(*)CC1; NMeAbu(4,4,4-F3) = CN[C@@H](CC(F)(F)F)C(=O)O; NMeGly(cPent) = CN[C@H](C(=O)O)C1CCCC1; NMeGly(cBu) = CN[C@H](C(=O)O)C1CCC1; Piperidide(4-Me) = CC1CCN(*)CC1; NMeD = CN[C@@H](CC(=O)O)C(=O)O; NMeL = CN[C@@H](CC(C)C)C(=O)O; Oxazolidin(3-yl) = C1CN(*)CO1; NMeNva = CCC[C@H](NC)C(=O)O; Azetidin(1-yl) = C1CN(*)C1; NMeAbu = CC[C@H](NC)C(=O)O; Morpholide = C1CN(*)CCO1; NMeA = CN[C@@H](C)C(=O)O; Piperidide = C1CCN(*)CC1; Pyrrolidide = C1CCN(*)C1; Ac5c = NC1(C(=O)O)CCCC1; Aze = O=C(O)[C@@H]1CCN1; X24 = CC1(C)CCN(*)C1; Sar = CNCC(=O)O
Assays:
[1] = molecular target: GDP-bound KRAS wild-type protein (Homo sapiens, UniProt P01116); experiment: Binding to KRAS by surface plasmon resonance (SPR), Single Cycle Kinetics; conditions: SPR Single Cycle Kinetics, GDP-bound KRAS wild-type protein, 1:1 binding model; read-out: KRAS KD
[2] = molecular target: GDP-bound NRAS wild-type protein (Homo sapiens, UniProt P01111); experiment: Binding to NRAS by surface plasmon resonance (SPR), Single Cycle Kinetics; conditions: SPR, GDP-bound NRAS wild-type protein vs GDP-bound KRAS wild-type protein
[3] = molecular target: GDP-bound HRAS wild-type protein (Homo sapiens, UniProt P01112); experiment: Binding to HRAS by surface plasmon resonance (SPR), Single Cycle Kinetics; conditions: SPR, GDP-bound HRAS wild-type protein vs GDP-bound KRAS wild-type protein
Sequence of GDP-bound HRAS wild-type protein (P01112 whole entry): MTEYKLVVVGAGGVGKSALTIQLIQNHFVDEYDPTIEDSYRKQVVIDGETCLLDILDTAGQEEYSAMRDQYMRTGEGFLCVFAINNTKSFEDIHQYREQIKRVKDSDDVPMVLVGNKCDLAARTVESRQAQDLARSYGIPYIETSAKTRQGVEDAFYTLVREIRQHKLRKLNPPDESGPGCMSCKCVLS

Sequence of GDP-bound KRAS wild-type protein (P01116 whole entry): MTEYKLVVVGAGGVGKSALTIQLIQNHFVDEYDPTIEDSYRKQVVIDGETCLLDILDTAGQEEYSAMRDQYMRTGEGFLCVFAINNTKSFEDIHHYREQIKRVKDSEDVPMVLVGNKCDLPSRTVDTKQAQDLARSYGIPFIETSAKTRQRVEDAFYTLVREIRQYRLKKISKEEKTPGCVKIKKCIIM
Sequence of GDP-bound NRAS wild-type protein (P01111 whole entry): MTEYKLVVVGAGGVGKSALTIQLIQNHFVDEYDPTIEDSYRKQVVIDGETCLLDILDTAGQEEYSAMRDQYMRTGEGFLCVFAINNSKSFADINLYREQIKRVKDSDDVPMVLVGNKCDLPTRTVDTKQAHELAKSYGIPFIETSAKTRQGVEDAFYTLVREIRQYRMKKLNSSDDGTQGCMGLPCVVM

Row | Kd [1] | Compound | NRAS/KRAS (ratio of KD value for NRAS to KD value for KRAS) [2] | HRAS/KRAS (ratio of KD value for HRAS to KD value for KRAS) [3]
1 | 0.19 nM | CCCN1C(=O)CN(C)C(=O)CN(C)C(=O)[C@H]([C@@H](C)CC)NC(=O)[C@H](CC(F)(F)F)N(C)C(=O)C[C@@H](C(=O)N2CCOCC2)N(C)C(=O)[C@H](C2CCCC2)N(C)C(=O)C2(CCCC2)NC(=O)[C@@H]2CCCN2C(=O)[C@H](CCc2ccc(C(F)(F)F)c(Cl)c2)NC(=O)CN(C)C(=O)[C@@H]1Cc1ccc(C(F)(F)F)cc1 [PP0187] ([NMeAbu(4,4,4-F3)]I[Sar][Sar][NPrPhe(4-CF3)][Sar][hPhe(3-Cl-4-CF3)]P[Ac5c][NMeGly(cPent)][NMeD]-Morpholide; lactam N-11) | B (a compound having 3 or more and less than 10 is denoted as B) | C (A compound having a KD ratio of 0.1 or more and less than 3 is denoted as C)
2 | 0.25 nM | CCCN1C(=O)CN(C)C(=O)CN(C)C(=O)[C@H]([C@@H](C)CC)NC(=O)[C@H](C2CCC2)N(C)C(=O)C[C@@H](C(=O)N2CCOCC2)N(C)C(=O)[C@H](C2CCCC2)N(C)C(=O)C2(CCCC2)NC(=O)[C@@H]2CCCN2C(=O)[C@H](CCc2ccc(C(F)(F)F)c(Cl)c2)NC(=O)CN(C)C(=O)[C@@H]1Cc1ccc(C(F)(F)F)cc1 [PP0188] ([NMeGly(cBu)]I[Sar][Sar][NPrPhe(4-CF3)][Sar][hPhe(3-Cl-4-CF3)]P[Ac5c][NMeGly(cPent)][NMeD]-Morpholide; lactam N-11) | B (a compound having 3 or more and less than 10 is denoted as B) | C (A compound having a KD ratio of 0.1 or more and less than 3 is denoted as C)
3 | 0.22 nM | CCC[C@H]1C(=O)N[C@@H]([C@@H](C)CC)C(=O)N(C)CC(=O)N(C)CC(=O)N(CCC)[C@@H](Cc2ccc(C(F)(F)F)cc2)C(=O)N(C)CC(=O)N[C@@H](CCc2ccc(C(F)(F)F)c(Cl)c2)C(=O)N2CCC[C@H]2C(=O)NC2(CCCC2)C(=O)N(C)[C@@H](C2CCCC2)C(=O)N(C)[C@H](C(=O)N2CCOCC2)CC(=O)N1C [PP0189] ([NMeNva]I[Sar][Sar][NPrPhe(4-CF3)][Sar][hPhe(3-Cl-4-CF3)]P[Ac5c][NMeGly(cPent)][NMeD]-Morpholide; lactam N-11) | B (a compound having 3 or more and less than 10 is denoted as B) | C (A compound having a KD ratio of 0.1 or more and less than 3 is denoted as C)
4 | 0.13 nM | CCCN1C(=O)CN(C)C(=O)CN(C)C(=O)[C@H]([C@@H](C)CC)NC(=O)[C@H](CC)N(C)C(=O)C[C@@H](C(=O)N2CCOCC2)N(C)C(=O)[C@H](C2CCCC2)N(C)C(=O)C2(CCCC2)NC(=O)[C@@H]2CCCN2C(=O)[C@H](CCc2ccc(C(F)(F)F)c(Cl)c2)NC(=O)CN(C)C(=O)[C@@H]1Cc1ccc(C(F)(F)F)cc1 [PP0190] ([NMeAbu]I[Sar][Sar][NPrPhe(4-CF3)][Sar][hPhe(3-Cl-4-CF3)]P[Ac5c][NMeGly(cPent)][NMeD]-Morpholide; lactam N-11) | B (a compound having 3 or more and less than 10 is denoted as B) | B (a compound having 3 or more and less than 10 is denoted as B)
5 | 0.14 nM | CCCN1C(=O)[C@@H]2CCN2C(=O)[C@H](C)N(C)C(=O)[C@H]([C@@H](C)CC)NC(=O)[C@H](CC(F)(F)F)N(C)C(=O)C[C@@H](C(=O)N2CCOCC2)N(C)C(=O)[C@H](C2CCCC2)N(C)C(=O)C2(CCCC2)NC(=O)[C@@H]2CCCN2C(=O)[C@H](CCc2ccc(C(F)(F)F)c(Cl)c2)NC(=O)CN(C)C(=O)[C@@H]1Cc1ccc(C(F)(F)F)cc1 [PP0191] ([NMeAbu(4,4,4-F3)]I[NMeA][Aze][NPrPhe(4-CF3)][Sar][hPhe(3-Cl-4-CF3)]P[Ac5c][NMeGly(cPent)][NMeD]-Morpholide; lactam N-11) | C (A compound having a KD ratio of 0.1 or more and less than 3 is denoted as C) | B (a compound having 3 or more and less than 10 is denoted as B)

The remaining lines, values behind:

Row | Compound | Kd [1] | NRAS/KRAS (ratio of KD value for NRAS to KD value for KRAS) [2] | HRAS/KRAS (ratio of KD value for HRAS to KD value for KRAS) [3]
6 | CCCN1C(=O)[C@@H]2CCN2C(=O)[C@H](C)N(C)C(=O)[C@H]([C@@H](C)CC)NC(=O)[C@H](CC(C)C)N(C)C(=O)C[C@@H](C(=O)N2CCCC2)N(C)C(=O)[C@H](C2CCCC2)N(C)C(=O)C2(CCCC2)NC(=O)[C@@H]2CCCN2C(=O)[C@H](CCc2ccc(C(F)(F)F)c(Cl)c2)NC(=O)CN(C)C(=O)[C@@H]1Cc1ccc(C(F)(F)F)cc1 [PP0179] ([NMeL]I[NMeA][Aze][NPrPhe(4-CF3)][Sar][hPhe(3-Cl-4-CF3)]P[Ac5c][NMeGly(cPent)][NMeD]-Pyrrolidide; lactam N-11) | 0.11 nM | C (A compound having a KD ratio of 0.1 or more and less than 3 is denoted as C) | B (a compound having 3 or more and less than 10 is denoted as B)
7 | CCCN1C(=O)[C@@H]2CCN2C(=O)[C@H](C)N(C)C(=O)[C@H]([C@@H](C)CC)NC(=O)[C@H](CC(C)C)N(C)C(=O)C[C@@H](C(=O)N2CCCCC2)N(C)C(=O)[C@H](C2CCCC2)N(C)C(=O)C2(CCCC2)NC(=O)[C@@H]2CCCN2C(=O)[C@H](CCc2ccc(C(F)(F)F)c(Cl)c2)NC(=O)CN(C)C(=O)[C@@H]1Cc1ccc(C(F)(F)F)cc1 [PP0180] ([NMeL]I[NMeA][Aze][NPrPhe(4-CF3)][Sar][hPhe(3-Cl-4-CF3)]P[Ac5c][NMeGly(cPent)][NMeD]-Piperidide; lactam N-11) | 0.72 nM | C (A compound having a KD ratio of 0.1 or more and less than 3 is denoted as C) | C (A compound having a KD ratio of 0.1 or more and less than 3 is denoted as C)
8 | CCCN1C(=O)[C@@H]2CCN2C(=O)[C@H](C)N(C)C(=O)[C@H]([C@@H](C)CC)NC(=O)[C@H](CC(C)C)N(C)C(=O)C[C@@H](C(=O)N2CCC2)N(C)C(=O)[C@H](C2CCCC2)N(C)C(=O)C2(CCCC2)NC(=O)[C@@H]2CCCN2C(=O)[C@H](CCc2ccc(C(F)(F)F)c(Cl)c2)NC(=O)CN(C)C(=O)[C@@H]1Cc1ccc(C(F)(F)F)cc1 [PP0181] ([NMeL]I[NMeA][Aze][NPrPhe(4-CF3)][Sar][hPhe(3-Cl-4-CF3)]P[Ac5c][NMeGly(cPent)][NMeD]-{Azetidin(1-yl)}; lactam N-11) | 0.081 nM | C (A compound having a KD ratio of 0.1 or more and less than 3 is denoted as C) | B (a compound having 3 or more and less than 10 is denoted as B)
9 | CCCN1C(=O)[C@@H]2CCN2C(=O)[C@H](C)N(C)C(=O)[C@H]([C@@H](C)CC)NC(=O)[C@H](CC(C)C)N(C)C(=O)C[C@@H](C(=O)N2CCOC2)N(C)C(=O)[C@H](C2CCCC2)N(C)C(=O)C2(CCCC2)NC(=O)[C@@H]2CCCN2C(=O)[C@H](CCc2ccc(C(F)(F)F)c(Cl)c2)NC(=O)CN(C)C(=O)[C@@H]1Cc1ccc(C(F)(F)F)cc1 [PP0183] ([NMeL]I[NMeA][Aze][NPrPhe(4-CF3)][Sar][hPhe(3-Cl-4-CF3)]P[Ac5c][NMeGly(cPent)][NMeD]-{Oxazolidin(3-yl)}; lactam N-11) | 0.17 nM | C (A compound having a KD ratio of 0.1 or more and less than 3 is denoted as C) | B (a compound having 3 or more and less than 10 is denoted as B)
10 | CCCN1C(=O)[C@@H]2CCN2C(=O)[C@H](C)N(C)C(=O)[C@H]([C@@H](C)CC)NC(=O)[C@H](CC(C)C)N(C)C(=O)C[C@@H](C(=O)N2CCN(C3COC3)CC2)N(C)C(=O)[C@H](C2CCCC2)N(C)C(=O)C2(CCCC2)NC(=O)[C@@H]2CCCN2C(=O)[C@H](CCc2ccc(C(F)(F)F)c(Cl)c2)NC(=O)CN(C)C(=O)[C@@H]1Cc1ccc(C(F)(F)F)cc1 [PP0184] ([NMeL]I[NMeA][Aze][NPrPhe(4-CF3)][Sar][hPhe(3-Cl-4-CF3)]P[Ac5c][NMeGly(cPent)][NMeD]-{Piperazinyl(4-(3-oxetanyl))}; lactam N-11) | 0.32 nM | C (A compound having a KD ratio of 0.1 or more and less than 3 is denoted as C) | B (a compound having 3 or more and less than 10 is denoted as B)
11 | CCCN1C(=O)[C@@H]2CCN2C(=O)[C@H](C)N(C)C(=O)[C@H]([C@@H](C)CC)NC(=O)[C@H](CC(C)C)N(C)C(=O)C[C@@H](C(=O)N2CCC(C)CC2)N(C)C(=O)[C@H](C2CCCC2)N(C)C(=O)C2(CCCC2)NC(=O)[C@@H]2CCCN2C(=O)[C@H](CCc2ccc(C(F)(F)F)c(Cl)c2)NC(=O)CN(C)C(=O)[C@@H]1Cc1ccc(C(F)(F)F)cc1 [PP0185] ([NMeL]I[NMeA][Aze][NPrPhe(4-CF3)][Sar][hPhe(3-Cl-4-CF3)]P[Ac5c][NMeGly(cPent)][NMeD]-{Piperidide(4-Me)}; lactam N-11) | 1.1 nM | C (A compound having a KD ratio of 0.1 or more and less than 3 is denoted as C) | B (a compound having 3 or more and less than 10 is denoted as B)
12 | CCCN1C(=O)[C@@H]2CCN2C(=O)[C@H](C)N(C)C(=O)[C@H]([C@@H](C)CC)NC(=O)[C@H](CC(C)C)N(C)C(=O)C[C@@H](C(=O)N2CCC(C)(C)C2)N(C)C(=O)[C@H](C2CCCC2)N(C)C(=O)C2(CCCC2)NC(=O)[C@@H]2CCCN2C(=O)[C@H](CCc2ccc(C(F)(F)F)c(Cl)c2)NC(=O)CN(C)C(=O)[C@@H]1Cc1ccc(C(F)(F)F)cc1 [PP0186] ([NMeL]I[NMeA][Aze][NPrPhe(4-CF3)][Sar][hPhe(3-Cl-4-CF3)]P[Ac5c][NMeGly(cPent)][NMeD]-X24; lactam N-11) | 1.7 nM | C (A compound having a KD ratio of 0.1 or more and less than 3 is denoted as C) | B (a compound having 3 or more and less than 10 is denoted as B)
